This passage reports Kd results from publication PMC9030947, “Identification of Novel Natural Product Inhibitors against Matrix Metalloproteinase 9 Using Quantum Mechanical Fragment Molecular Orbital-Based Virtual Screening Methods” (International Journal of Molecular Sciences, 2022).

In this assay the target is T1, MMP-9 (Homo sapiens, UniProt P14780).
T1 construct: gene MMP9; Purified recombinant human MMP-9 protein with a His-tag (catalog number 10327-H08H)
In words: SPR (Biacore […], MMP-9 immobilized by amine coupling). Type of assay: binding. (In SPR one partner is held on a chip, and binding of the other changes the refractive index at the surface.)

T1 sequence (P14780 107-707): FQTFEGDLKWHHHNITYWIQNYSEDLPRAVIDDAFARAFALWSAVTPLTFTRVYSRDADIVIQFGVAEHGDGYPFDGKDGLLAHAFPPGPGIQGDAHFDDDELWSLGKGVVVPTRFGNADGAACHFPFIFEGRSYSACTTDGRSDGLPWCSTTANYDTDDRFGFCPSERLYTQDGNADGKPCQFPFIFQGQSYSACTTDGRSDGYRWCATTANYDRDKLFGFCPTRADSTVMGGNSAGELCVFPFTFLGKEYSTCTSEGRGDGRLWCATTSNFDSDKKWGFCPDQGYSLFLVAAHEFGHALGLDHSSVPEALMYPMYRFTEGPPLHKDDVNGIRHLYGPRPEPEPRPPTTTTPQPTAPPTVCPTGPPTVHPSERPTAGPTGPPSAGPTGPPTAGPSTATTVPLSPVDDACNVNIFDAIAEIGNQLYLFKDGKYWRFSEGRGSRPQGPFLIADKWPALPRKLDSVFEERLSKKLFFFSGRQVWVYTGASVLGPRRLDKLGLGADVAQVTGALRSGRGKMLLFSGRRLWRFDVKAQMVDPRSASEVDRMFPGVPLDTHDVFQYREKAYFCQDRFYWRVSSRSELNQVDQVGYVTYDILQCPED

Take `COc1cc2c(cc1O)-c1c(OC)c(O)cc3c1[C@H](C2)NCC3` [compound 9, laetanine]: the Kd (usually a measure of binding affinity in units of concentration) turned out to be 21.6 µM. This counts as double-digit micromolar.

Regarding `COc1cc(O)c2c(=O)cc(-c3ccc(O)cc3)oc2c1` [compound 10, genkwanin], binding was put at a Kd of 0.614 µM.
